Entries after “also recorded” stand apart in the source; their conditions may differ. Bridge positions count the residues as written; N and C are the ends. Ends that are not written are not given here. Peptide text beside a SMILES is read from it.
Tests used:
[1] = target: AgrC-I receptor (Staphylococcus epidermidis, UniProt Q5HMY3); test: cell-based; assay type: cell-based, S. epidermidis; details: for Mode/strength of activity toward AgrC-I (Group I), in words: dose response; for Activity toward Group-I at lower concentration, in words: single concentration 100 nM (or 1 μM)
Procedure: The initial set of 14 analogs (listed in Table 1) was synthesized using solid-phase peptide chemistry and purified to homogeneity using previously established HPLC methods (59). Each analog was tested for its ability to modulate the activity of the AgrC-I receptor using a wild-type S. epidermidis Group-I fluorescence reporter strain. This strain contained a reporter plasmid encoding a gfp gene fused to the P3 promoter found upstream of RNAIII (36).
(§1) Biological reagents, strains, and general methods. All standard reagents were purchased from commercial sources and used according to enclosed instructions. The S. epidermidis fluorescence reporter strains AH3408 (Group-I), AH3567 (Group-II), and AH3409 (Group-III) were cultured in Tryptic Soy Broth (TSB, from Sigma) augmented with 10 μg/mL of erythromycin (36). The S. epidermidis wild-type strain RP62A (Group-I) was cultured in TSB (from Sigma or EMD Millipore). The S. aureus fluorescence reporter strains AH1677 (Group-I), AH430 (Group-II), AH1747 (Group-III), and AH1872 (Group-IV) were cultured in Brain Heart Infusion (BHI, from Teknova) augmented with 10 μg/mL of chloramphenicol (65). All cultures were grown at 37° C. with shaking (200 rpm) unless noted otherwise. Absorbance and fluorescence measurements were obtained using a Biotek Synergy 2 microplate reader operating Gen5 data analysis software. IC50 values and EC50 values were determined from sigmoidal curve fits using GraphPad Prism software (v. 6.0).
(§2) Fluorescence reporter assay protocol. […] Each peptide solution was tested in triplicate. […] Plates were then incubated at 37° C. for 24 h. Fluorescence (EX 500 nm/EM 540 nm) and OD600 of each well was measured using a plate reader, and the fluorescence values were normalized to the DMSO control.
(§3) The remaining steps of the fluorescence assay were the same as above.

[2] = test system: AgrC I-IV receptors in S. aureus Groups-I-IV; test: Fluorescence (GFP) reporter strain assays, S. aureus Groups-I-IV; assay type: cell-based; details: 100 nM unless noted
Text: (§4) Similar to the cross-group inhibition observed between different agr groups of the same species, this cross-species inhibitory effect has no known biological role, but is hypothesized to provide a competitive advantage on a host (18, 46). Thus, AIP analogs described herein were examined to identify potential species-specific inhibitors that target either S. epidermidis Group-I or S. aureus Groups-I-IV.
as §1, with “The S. epidermidis wild-type strain RP62A (Group-I) was cultured in TSB (from Sigma or EMD Millipore).” left out, “All cultures were grown at 37° C. with shaking (200 rpm) unless noted otherwise.” left out
(§5) Fluorescence reporter assay protocol. […]
as §3

[3] = test system: AgrC-II; details: for Activity toward Group-II at lower concentration, in words: single concentration 100 nM (or 1 μM)
Text: (§6) However, the biological significance of this agr interference remains unclear, although it has been hypothesized to potentially play a role in competition between different groups in a mixed bacteria milieu (18). […] To this end, the AIP analogs discussed above were screened in GFP reporter strains of Groups-II and -III S. epidermidis to complement the Group-I S. epidermidis data in Tables 1 and 2 (see Methods; FIGS. 7A and 7B).
as §1, §2, §3

[4] = test system: AgrC-III; details: for Activity toward Group-III at lower concentration, in words: single concentration 100 nM (or 1 μM)
Text: as §6, §1, §2, §3

[5] = test system: S. epidermidis Group-I RP62A biofilm
Procedure: as §1
Crystal violet biofilm assay protocol. […] Each solution was tested in triplicate.

[6] = test system: agr system of S. aureus Group-III; test: Fluorescence (GFP) reporter strain assay, S. aureus Group-III; assay type: cell-based; details: 100 nM unless noted
Text: as §4
as §1, with “The S. epidermidis wild-type strain RP62A (Group-I) was cultured in TSB (from Sigma or EMD Millipore).” left out, “All cultures were grown at 37° C. with shaking (200 rpm) unless noted otherwise.” left out
as §5, §3

[7] = dose response antagonism assay, FIGS. 3A/3B

AgrC-I receptor, sequence (Q5HMY3 entry or part of it): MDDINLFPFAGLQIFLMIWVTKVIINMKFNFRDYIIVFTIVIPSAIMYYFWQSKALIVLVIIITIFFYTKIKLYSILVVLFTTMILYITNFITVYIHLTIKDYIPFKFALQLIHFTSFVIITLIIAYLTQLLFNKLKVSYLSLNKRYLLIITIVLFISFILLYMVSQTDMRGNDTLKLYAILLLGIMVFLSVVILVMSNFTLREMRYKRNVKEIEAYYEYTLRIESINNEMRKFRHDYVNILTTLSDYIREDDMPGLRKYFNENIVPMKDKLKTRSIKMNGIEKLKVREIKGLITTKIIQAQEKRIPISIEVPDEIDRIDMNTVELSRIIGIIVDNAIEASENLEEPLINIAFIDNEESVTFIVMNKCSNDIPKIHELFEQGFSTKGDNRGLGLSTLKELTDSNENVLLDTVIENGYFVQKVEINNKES

Compound | Mode/strength of activity toward AgrC-I (Group I), in words [1] | Activity toward Group-I at lower concentration, in words [1] | Effect on agr activity in S. aureus Groups-I-IV, in words [2] | Activity toward Group-II at lower concentration, in words [3] | Activity toward Group-III at lower concentration, in words [4] | further results
CC(C)C[C@@H]1NC(=O)[C@H](Cc2ccc(O)cc2)NC(=O)[C@H](CC(N)=O)NC(=O)[C@H](CO)NC(=O)[C@@H](NC(=O)[C@@H]2CCCN2C(=O)[C@H](CC(N)=O)NC(=O)[C@@H](N)Cc2ccc(O)cc2)CSC1=O [AIP-II 8aa, Y-N-P-(C-S-N-Y-L)] (H-YNPCSNYL; thioester 4-C) | potency similar to the parent AIP-II | remained active; also recorded: selectively inhibited | without significantly affecting agr activity | inhibitory activity against Group-II decreased |  | inhibition at 10 µM ([1]; read-out: Inhibition of AgrC-I (inhibiting to ~%)): ~75%; Activity against Group-III, in words ([4]; single concentration 10 μM): inactive
I-N-(C-A-F-L-L) (INCAFLL; bridge 3-C; also: thiolactone between Cys3 side chain and C-terminus) [S. aureus AIP-III D4A, reference compound] | largely inactive | inactive | potent pan-group inhibitor | inhibiting exclusively Group-II |  | EC50 in AgrC-I ([1]; activation dose response in the presence of 50 nM S. epidermidis AIP-II): Inactive^c; IC50 in AgrC-I ([1]; antagonism dose response, peptide alone, Group-I GFP reporter strain, 24 h): Inactive^c
CC(C)[C@H](NC(=O)[C@H](CO)NC(=O)[C@@H](N)CC(=O)O)C(=O)N[C@H]1CSC(=O)[C@H](Cc2ccccc2)NC(=O)[C@H](Cc2ccc(O)cc2)NC(=O)[C@H](CO)NC(=O)[C@H](C)NC1=O [AIP-I, D-S-V-(C-A-S-Y-F), reference compound] (H-DSVCASYF; thioester 4-C) |  |  |  |  |  | IC50 ([5]; read-out: IC50 of biofilm growth inhibition, 24 h static, CV staining): 99 nM
CC(C)C[C@@H]1NC(=O)[C@H](Cc2ccc(O)cc2)NC(=O)[C@H](CC(N)=O)NC(=O)[C@H](CO)NC(=O)[C@@H](NC(=O)[C@@H]2CCCN2C(=O)[C@H](CC(N)=O)NC(=O)[C@H](Cc2ccc(O)cc2)NC(=O)[C@@H](N)CCCCN)CSC1=O [AIP-II 9aa, K-Y-N-P-(C-S-N-Y-L)] (H-KYNPCSNYL; thioester 5-C) |  | inhibited; also recorded: largely an inhibitor specific to S. epidermidis Group-I |  | highly active agonist | inactive | Inhibitory activity in S. aureus Group-III, in words [6]: weak inhibitory activity
C[C@H](N)C(=O)N[C@@H](CO)C(=O)N[C@@H](C)C(=O)N[C@H]1CSC(=O)[C@H](Cc2ccccc2)NC(=O)[C@H](Cc2ccc(O)cc2)NC(=O)[C@H](C)NC(=O)[C@H](CO)NC1=O [AIP-I D1AS6AV3AA5S, A-S-A-(C-S-A-Y-F)] (H-ASACSAYF; thioester 4-C) | analogous potency as the parent triple mutant |  |  | strongly inhibited | strongly inhibited | IC50 against AgrC-II, in words [3, 7]: subnanomolar to low nanomolar range; IC50 against AgrC-III, in words [4, 7]: subnanomolar to low nanomolar range; Effect on biofilm growth, in words ([5]; 10 μM, 24 h): did not increase biofilm growth

Source: patent US12662513B2, “Peptidic modulators of quorum sensing in Staphylococcus epidermidis” (priority 2016, dated 2026)
